These results are taken from patent US10689399B2, “Substituted 3,4,5,6,8,10,14,14a-octahydro-2h-2,6-methanopyrido[1′,2′:4,5]pyrazino[2,1-b][1,3]oxazocines and methods for treating viral infections” (Gilead Sciences, Inc., priority 2012, dated 2020).

In this experiment the test system is HIV-IIIb. Nature of the experiment: Antiviral assay in MT4 cells. The format is cell-based. The settings on record: Human immunodeficiency virus 1, IIIB, MT4, 120 h, MT4 cells infected with HIV-IIIb, 5 days, CellTiter-Glo; read-out: EC50 nM in MT-4. A digest of the protocol:
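MT4 cells pre-infected with HIV-IIIb (0.004 m.o.i.) at 37 °C, or mock-infected, then seeded at 2000 cells/well onto 3-fold serially diluted compound (10 concentrations, quadruplicate) in RPMI 1640 with 10% FBS. After 5 days at 37 °C, cell viability read by CellTiter-Glo luminescence.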
Background: Cellular ATP, detected with luciferase, serves as a proxy for viable cell number.

Consider `O=C(NCc1cccc(Cl)c1F)c1cn2c(c(O)c1=O)C(=O)N1[C@H]3CC[C@H](C3)[C@@H]1C2` [Compound 90, (1R,4S,12aR)—N-(3-chloro-2-fluorobenzyl)-7-hydroxy-6,8-dioxo-1,2,3,4,6,8,12,12a-octahydro-1,4-methanodipyrido[1,2-a:1′,2′-d]pyrazine-9-carboxamide], for which the EC50 (in general, the concentration needed to bring the measured effect to its halfway point) turned out to be 5.7 nM.

On to `O=C(NCc1ccc(F)c(F)c1F)c1cn2c(c(O)c1=O)C(=O)N1[C@H]3CC[C@H](C3)[C@@H]1C2` [Compound 91, (1R,4S,12aR)-7-hydroxy-6,8-dioxo-N-(2,3,4-trifluorobenzyl)-1,2,3,4,6,8,12,12a-octahydro-1,4-methanodipyrido[1,2-a:1′,2′-d]pyrazine-9-carboxamide], for which the EC50 was found to be 5 nM. The value for `O=C(NCc1ccc(Cl)cc1F)c1cn2c(c(O)c1=O)C(=O)N1[C@H]3CC[C@H](C3)[C@@H]1C2` [Compound 92, (1R,4S,12aR)—N-(4-chloro-2-fluorobenzyl)-7-hydroxy-6,8-dioxo-1,2,3,4,6,8,12,12a-octahydro-1,4-methanodipyrido[1,2-a:1′,2′-d]pyrazine-9-carboxamide] was 18.6 nM; that for `O=C(NCc1c(F)cc(F)cc1Cl)c1cn2c(c(O)c1=O)C(=O)N1[C@H]3CC[C@H](C3)[C@@H]1C2` [Compound 93, (1R,4S,12aR)—N-(2-chloro-4,6-difluorobenzyl)-7-hydroxy-6,8-dioxo-1,2,3,4,6,8,12,12a-octahydro-1,4-methanodipyrido[1,2-a:1′,2′-d]pyrazine-9-carboxamide] was 2.2 nM; that for `O=C(NCc1ccccc1)c1cn2c(c(O)c1=O)C(=O)N1[C@H]3CC[C@H](C3)[C@@H]1C2` [Compound 94, (1R,4S,12aR)—N-benzyl-7-hydroxy-6,8-dioxo-1,2,3,4,6,8,12,12a-octahydro-1,4-methanodipyrido[1,2-a:1′,2′-d]pyrazine-9-carboxamide] was 11.5 nM.

In the case of `O=C(NCc1c(F)cc(F)cc1F)c1cn2c(c(O)c1=O)C(=O)N1[C@@H](C2)[C@H]2C[C@@H]1C(F)(F)C2` [Compound 98, (1S,4R,12aR)-3,3-difluoro-7-hydroxy-6,8-dioxo-N-(2,4,6-trifluorobenzyl)-1,2,3,4,6,8,12,12a-octahydro-1,4-methanodipyrido[1,2-a:1′,2′-d]pyrazine-9-carboxamide], the EC50 was determined as 2.4 nM. Then `C[C@H]1C[C@@H]2C[C@H]1N1C(=O)c3c(O)c(=O)c(C(=O)NCc4c(F)cc(F)cc4F)cn3C[C@@H]21` [Compound 99, (1R,3S,4R,12aR)-7-hydroxy-3-methyl-6,8-dioxo-N-(2,4,6-trifluorobenzyl)-1,2,3,4,6,8,12,12a-octahydro-1,4-methanodipyrido[1,2-a:1′,2′-d]pyrazine-9-carboxamide], with 2 nM; and `O=C(NCc1ccc(F)cc1F)c1cn2c(c(O)c1=O)C(=O)N1[C@H]3CC[C@H](CC3)[C@H]1C2` [Compound 100, (1R,4R,12aS)—N-(2,4-difluorobenzyl)-7-hydroxy-6,8-dioxo-1,2,3,4,6,8,12,12a-octahydro-1,4-ethanodipyrido[1,2-a:1′,2′-d]pyrazine-9-carboxamide], with 2.2 nM. Then `O=C(NCc1c(F)cc(F)cc1F)c1cn2c(c(O)c1=O)C(=O)N1[C@H]3CC[C@H](CC3)[C@H]1C2` [Compound 101, (1R,4R,12aS)-7-hydroxy-6,8-dioxo-N-(2,4,6-trifluorobenzyl)-1,2,3,4,6,8,12,12a-octahydro-1,4-ethanodipyrido[1,2-a:1′,2′-d]pyrazine-9-carboxamide], with 2.1 nM.

Regarding `O=C(NCc1c(F)cc(F)cc1F)c1cn2c(c(O)c1=O)C(=O)N1[C@H]3CC[C@H](CC3)[C@@H]1C2` [Compound 102, (1S,4S,12aR)-7-hydroxy-6,8-dioxo-N-(2,4,6-trifluorobenzyl)-1,2,3,4,6,8,12,12a-octahydro-1,4-ethanodipyrido[1,2-a:1′,2′-d]pyrazine-9-carboxamide], the EC50 turned out to be 2.3 nM. Then `O=C(NCc1c(F)cc(F)cc1F)c1cn2c(c(O)c1=O)C(=O)N1[C@@H]3C[C@@H](C(F)C3F)[C@@H]1C2` (stereo partly drawn) [Compound 103, (1R,4R,12aR)-2,3-difluoro-7-hydroxy-6,8-dioxo-N-(2,4,6-trifluorobenzyl)-1,2,3,4,6,8,12,12a-octahydro-1,4-methanodipyrido[1,2-a:1′,2′-d]pyrazine-9-carboxamide], with 10.3 nM.
